According to US8461107B2 (Merck Sharp & Dohme Corp., priority 2008, dated 2013):

The compounds below were run against T1, HCV genotype 1b (BK) NS3 modified with a R155K mutation (Hepatitis C virus genotype 1b, UniProt P26663, R1181K) (assay: HCV NS3 protease time-resolved fluorescence (TRF) assay, NS3 protease 1b R155K Ki activity). Settings: HCV genotype 1b (BK) NS3 with R155K mutation; TRF peptide substrate 100 nM; Ki derived from IC50.
T1 construct: HCV genotype 1b (BK) NS3 modified with a R155K mutation
Type: biochemical
Procedure: The HCV NS3 protease inhibitory activity of the present compounds may be tested using assays known in the art. One such assay is HCV NS3 protease time-resolved fluorescence (TRF) assay as described below and in International Patent Application Publication WO 2006/102087. Other examples of such assays are described in e.g., International Patent Application Publication WO 2005/046712.
A NS3 protease assay can be performed, for example, in a final volume of 100 μl assay buffer containing 50 mM HEPES, pH 7.5, 150 mM NaCl, 15% glycerol, 0.15% TRITON X-100, 10 mM DTT, and 0.1% PEG 8000. NS3 and NS4A protease is pre-incubated with various concentrations of inhibitors in DMSO for 30 minutes. The reaction is initiated by adding the TRF peptide substrate (final concentration 100 nM). NS3 mediated hydrolysis of the substrate is quenched after 1 hour at room temperature with 100 μl of 500 mM MES, pH 5.5. Product fluorescence is detected using either a VICTOR V2 or FUSION fluorophotometer (Perkin Elmer Life and Analytical Sciences) with excitation at 340 nm and emission at 615 nm with a 400 μs delay. Testing concentrations of different enzyme forms are selected to result in a signal to background ratio (S/B) of 10-30. IC50 values are derived using a standard four-parameter fit to the data. Ki values are derived from IC50 values using the following formula, IC50=Ki(1+[S]/KM), Eqn (1), where [S] is the concentration of substrate peptide in the reaction and KM is the Michaelis constant. See P. Gallinari et al., 38 BIOCHEM. 5620-32 (1999); P. Gallinari et al., 72 J. VIROL. 6758-69 (1998); M. Taliani et al., 240 ANAL. BIOCHEM. 60-67 (1996).
The HCV NS3 protease inhibitory activity was measured using the protease time-resolved fluorescence (TRF) assay as described below and in International Patent Application Publication WO 2006/102087. The assay was performed with HCV genotype 1b (BK) NS3 modified with a R155K mutation.
The assay was performed in a final volume of 100 μl in assay buffer containing 50 mM HEPES, pH 7.5, 150 mM NaCl, 15% glycerol, 0.15% TRITON X-100, 10 mM DTT, and 0.1% PEG 8000. NS3 and NS4A protease is pre-incubated with various concentrations of inhibitors in DMSO for 30 minutes. The reaction is initiated by adding the TRF peptide substrate (final concentration 100 nM). NS3 mediated hydrolysis of the substrate is quenched after 1 hour at room temperature with 100 μl of 500 mM MES, pH 5.5. Product fluorescence is detected using either a VICTOR V2 or FUSION fluorophotometer (Perkin Elmer Life and Analytical Sciences) with excitation at 340 nm and emission at 615 nm with a 400 μs delay. Testing concentrations of the enzyme containing the R155K mutation were selected to result in a signal to background ratio (S/B) of 10-30. IC50 values are derived using a standard four-parameter fit to the data. Ki values are derived from IC50 values using the following formula, IC50=Ki(1+[S]/KM), Eqn (1), where [S] is the concentration of substrate peptide in the reaction and KM is the Michaelis constant. See P. Gallinari et al., 38 BIOCHEM. 5620-32 (1999); P. Gallinari et al., 72 J. VIROL. 6758-69 (1998); M. Taliani et al., 240 ANAL. BIOCHEM. 60-67 (1996).
`CC[C@@H]1C[C@]1(NC(=O)[C@@H]1C[C@@H]2CN1C(=O)[C@H](C1CCCC1)NC(=O)O[C@@H]1CCC[C@H]1CC/C=C/Cn1c(nc3cc(C(F)(F)F)ccc3c1=O)O2)C(=O)NS(=O)(=O)C1CC1` [(3aR,7S,10S,12R,22E,25aS)-7-cyclopentyl-N-((1R,2R)-1-{[(cyclopropylsulfonyl)amino]carbonyl}-2-ethylcyclopropyl)-5,8,19-trioxo-16-(trifluoromethyl)-1,2,3,3a,5,6,7,8,11,12,21,24,25,25a-tetradecahydro-10H,19H-9,12-methanocyclopenta[18,19][1,10,3,6,12]dioxatriazacyclononadecino[11,12-b]quinazoline-10-carboxamide] was tested, and the Ki was under 0.1 nM. With `CC[C@@H]1C[C@]1(NC(=O)[C@@H]1C[C@@H]2CN1C(=O)[C@H](C1CCCC1)NC(=O)O[C@@H]1CCC[C@H]1CC/C=C/Cn1c(nc3cc(-c4ccccc4)ccc3c1=O)O2)C(=O)NS(=O)(=O)C1CC1` [(3aR,7S,10S,12R,22E,25aS)-7-cyclopentyl-N-((1R,2R)-1-{[(cyclopropylsulfonyl)amino]carbonyl}-2-ethylcyclopropyl)-5,8,19-trioxo-16-phenyl-1,2,3,3a,5,6,7,8,11,12,21,24,25,25a-tetradecahydro-10H,19H-9,12-methanocyclopenta[18,19][1,10,3,6,12]dioxatriazacyclononadecino[11,12-b]quinazoline-10-carboxamide] the Ki was 0.1 to 0.5 nM. Work on `CC[C@@H]1C[C@]1(NC(=O)[C@@H]1C[C@@H]2CN1C(=O)[C@H](C1CCCC1)NC(=O)O[C@@H]1CCC[C@H]1CC/C=C/Cc1c(nc3ccccn3c1=O)O2)C(=O)NS(=O)(=O)C1CC1` [(3aR,7S,10S,12R,22E,25aS)-7-cyclopentyl-N-((1R,2R)-1-{[(cyclopropylsulfonyl)amino]carbonyl}-2-ethylcyclopropyl)-5,8,20-trioxo-1,2,3,3a,5,6,7,8,11,12,21,24,25,25a-tetradecahydro-10H,20H-9,12-methanocyclopenta[r]pyrido[1′,2′:1,2]pyrimido[4,5-k][1,10,3,6]dioxadiazacyclononadecine-10-carboxamide] yielded a Ki of 0.1 to 0.5 nM. With `CC[C@@H]1C[C@]1(NC(=O)[C@@H]1C[C@@H]2CN1C(=O)[C@H](C1CCCC1)NC(=O)O[C@@H]1CCC[C@H]1CC/C=C/Cn1c(nc3c(OC)cccc3c1=O)O2)C(=O)NS(=O)(=O)C1CC1` [(3aR,7S,10S,12R,22E,25aS)-7-cyclopentyl-N-((1R,2R)-1-{[(cyclopropylsulfonyl)amino]carbonyl}-2-ethylcyclopropyl)-15-methoxy-5,8,19-trioxo-1,2,3,3a,5,6,7,8,11,12,21,24,25,25a-tetradecahydro-10H,19H-9,12-methanocyclopenta[18,19][1,10,3,6,12]dioxatriazacyclononadecino[11,12-b]quinazoline-10-carboxamide] the Ki was 0.1 to 0.5 nM. For `CC[C@@H]1C[C@]1(NC(=O)[C@@H]1C[C@@H]2CN1C(=O)[C@H](C1CCCC1)NC(=O)O[C@@H]1CCC[C@H]1CC/C=C/Cn1c(nc3cc(S(C)(=O)=O)ccc3c1=O)O2)C(=O)NS(=O)(=O)C1CC1` [(3aR,7S,10S,12R,22E,25aS)-7-cyclopentyl-N-((1R,2R)-1-{[(cyclopropylsulfonyl)amino]carbonyl}-2-ethylcyclopropyl)-16-(methylsulfonyl)-5,8,19-trioxo-1,2,3,3a,5,6,7,8,11,12,21,24,25,25a-tetradecahydro-10H,19H-9,12-methanocyclopenta[18,19][1,10,3,6,12]dioxatriazacyclononadecino[11,12-b]quinazoline-10-carboxamide], the Ki was under 0.1 nM. `CC[C@@H]1C[C@]1(NC(=O)[C@@H]1C[C@@H]2CN1C(=O)[C@H](C1CCCC1)NC(=O)O[C@@H]1CCC[C@H]1CC/C=C/Cc1c(nc3cc(OC)ccn3c1=O)O2)C(=O)NS(=O)(=O)C1CC1` [(3aR,7S,10S,12R,22E,25aS)-7-cyclopentyl-N-((1R,2R)-1-{[(cyclopropylsulfonyl)amino]carbonyl}-2-ethylcyclopropyl)-16-methoxy-5,8,20-trioxo-1,2,3,3a,5,6,7,8,11,12,21,24,25,25a-tetradecahydro-10H,20H-9,12-methanocyclopenta[r]pyrido[1′,2′:1,2]pyrimido[4,5-k][1,10,3,6]dioxadiazacyclononadecine-10-carboxamide] was tested, and the Ki was 0.1 to 0.5 nM. `CC[C@@H]1C[C@]1(NC(=O)[C@@H]1C[C@@H]2CN1C(=O)[C@H](C1CCCC1)NC(=O)O[C@@H]1CCC[C@H]1CC/C=C/Cn1c(nc3cccc(OC)c3c1=O)O2)C(=O)NS(=O)(=O)C1CC1` [(3aR,7S,10S,12R,22E,25aS)-7-cyclopentyl-N-((1R,2R)-1-{[(cyclopropylsulfonyl)amino]carbonyl}-2-ethylcyclopropyl)-18-methoxy-5,8,19-trioxo-1,2,3,3a,5,6,7,8,11,12,21,24,25,25a-tetradecahydro-10H,19H-9,12-methanocyclopenta[18,19][1,10,3,6,12]dioxatriazacyclononadecino[11,12-b]quinazoline-10-carboxamide] gave a Ki of 0.1 to 0.5 nM. `C=C[C@@H]1C[C@]1(NC(=O)[C@@H]1C[C@@H]2CN1C(=O)[C@H](C1CCCC1)NC(=O)O[C@@H]1CCC[C@H]1CC/C=C/Cn1c(nc3ccccc3c1=O)O2)C(=O)NS(=O)(=O)C1CC1` [(3aR,7S,10S,12R,22E,25aS)-7-cyclopentyl-N-((1R,2S)-1-{[(cyclopropylsulfonyl)amino]carbonyl}-2-vinylcyclopropyl)-5,8,19-trioxo-1,2,3,3a,5,6,7,8,11,12,21,24,25,25a-tetradecahydro-10H,19H-9,12-methanocyclopenta[18,19][1,10,3,6,12]dioxatriazacyclononadecino[11,12-b]quinazoline-10-carboxamide] showed a Ki of under 0.1 nM. In the case of `C=C[C@@H]1C[C@]1(NC(=O)[C@@H]1C[C@@H]2CN1C(=O)[C@H](C1CCCC1)NC(=O)O[C@@H]1CCC[C@H]1CC/C=C/Cn1c(nc3cc(C(F)(F)F)ccc3c1=O)O2)C(=O)NS(=O)(=O)C1CC1` [(3aR,7S,10S,12R,22E,25aS)-7-cyclopentyl-N-((1R,2S)-1-{[(cyclopropylsulfonyl)amino]carbonyl}-2-vinylcyclopropyl)-5,8,19-trioxo-16-(trifluoromethyl)-1,2,3,3a,5,6,7,8,11,12,21,24,25,25a-tetradecahydro-10H,19H-9,12-methanocyclopenta[18,19][1,10,3,6,12]dioxatriazacyclononadecino[11,12-b]quinazoline-10-carboxamide], the Ki is reported as under 0.1 nM. `C=C[C@@H]1C[C@]1(NC(=O)[C@@H]1C[C@@H]2CN1C(=O)[C@H](C1CCCC1)NC(=O)O[C@@H]1CCC[C@H]1CC/C=C/Cn1c(nc3cc(-c4ccccc4)ccc3c1=O)O2)C(=O)NS(=O)(=O)C1CC1` [(3aR,7S,10S,12R,22E,25aS)-7-cyclopentyl-N-((1R,2S)-1-{[(cyclopropylsulfonyl)amino]carbonyl}-2-vinylcyclopropyl)-5,8,19-trioxo-16-phenyl-1,2,3,3a,5,6,7,8,11,12,21,24,25,25a-tetradecahydro-10H,19H-9,12-methanocyclopenta[18,19][1,10,3,6,12]dioxatriazacyclononadecino[11,12-b]quinazoline-10-carboxamide] showed a Ki of under 0.1 nM. Work on `C=C[C@@H]1C[C@]1(NC(=O)[C@@H]1C[C@@H]2CN1C(=O)[C@H](C1CCCC1)NC(=O)O[C@@H]1CCC[C@H]1CC/C=C/Cc1c(nc3ccccn3c1=O)O2)C(=O)NS(=O)(=O)C1CC1` [(3aR,7S,10S,12R,22E,25aS)-7-cyclopentyl-N-((1R,2S)-1-{[(cyclopropylsulfonyl)amino]carbonyl}-2-vinylcyclopropyl)-5,8,20-trioxo-1,2,3,3a,5,6,7,8,11,12,21,24,25,25a-tetradecahydro-10H,20H-9,12-methanocyclopenta[r]pyrido[1′,2′:1,2]pyrimido[4,5-k][1,10,3,6]dioxadiazacyclononadecine-10-carboxamide] yielded a Ki of under 0.1 nM.
